Experimental findings from patent USRE43802E1, “α- and β-amino acid hydroxyethylamino sulfonamides useful as retroviral protease inhibitors” (G.D. Searle LLC, priority 1992, dated 2012) are described below.

Where two headings read alike, the source gives them in different places.

Data set [1] concerns the target T1, HIV protease (Human immunodeficiency virus type 1 group M subtype B, UniProt P04585).
T1 construct: HIV protease is diluted in the assay buffer to a final enzyme concentration of 12.3 nanomolar, based on a molecular weight of 10,780
Kind of data set: HIV protease enzyme assay (fluorescence, substrate 2-Ile-Nle-Phe(p-NO2)-Gln-ArgNH2). To be noted: for IC50: HIV protease enzyme assay. In kind it is biochemical. The protocol:
The enzyme method is described below. […] The positive control is MVT-101 (Miller, M. et al, Science, 246, 1149 (1989)] The assay conditions are as follows:
Assay buffer: 20 mM sodium phosphate, pH 6.4 20% glycerol 1 mM EDTA 1 mM DTT 0.1% CHAPS
The above described substrate is dissolved in DMSO, then diluted 10 fold in assay buffer. Final substrate concentration in the assay is 80 μM.
The final concentration of DMSO is 14% and the final concentration of glycerol is 18%. The test compound is dissolved in DMSO and diluted in DMSO to 10× the test concentration; 10 μl of the enzyme preparation is added, the materials mixed and then the mixture is incubated at ambient temperature for 15 minutes. The enzyme reaction is initiated by the addition of 40 μl of substrate. The increase in fluorescence is monitored at 4 time points (0, 8, 16 and 24 minutes) at ambient temperature. Each assay is carried out in duplicate wells.

For data set [2], the system named is CEM cells. The data set can be described thus: Intrinsic toxicity of test compound in uninfected CEM cells (MTT). The conditions noted are these: Table 21. In kind it is cell-based. An excerpt:
Methods, 20, 309-321 (1988).

[3] abbreviates: Table 19B, read-out: IC50 (uM) or % inhib: IC50.
[4] abbreviates: Table 20, read-out: IC50 (uM) or % inhibition: IC50.

In the case of `CC(C)CN(C[C@@H](O)[C@H](Cc1ccccc1)NC(=O)OCc1cccnc1)S(=O)(=O)c1ccccc1` [Example 16], the IC50 (usually the midpoint of a concentration-inhibition curve) in data set [1] (Table 21, read-out: IC50) amounted to 9 nM. Also, the “TD50 (nM)” value in data set [2] is listed as 62,000 nM.
`COc1ccc(S(=O)(=O)N(CC(C)C)C[C@@H](O)[C@H](Cc2ccccc2)NC(=O)c2c(C)cccc2C)cc1` [Example 32] showed an IC50 in data set [1] (IC50 (nM), Table 21) of 5 nM. The “TD50 (nM)” value in data set [2] is on record as 17,000 nM.
For the compound `COc1ccc(S(=O)(=O)N(CC(C)C)C[C@@H](O)[C@H](Cc2ccccc2)NC(=O)c2ccccc2Cl)cc1` [Example 30], the “TD50 (nM)” value in data set [2] is reported as 154,000 nM.
For `COc1ccc(S(=O)(=O)N(CC(C)C)C[C@@H](O)[C@H](Cc2ccccc2)NC(=O)OCc2ccccn2)cc1` [Example 21], in data set [1] (Table 21, read-out: IC50), the IC50 turned out to be 73 nM.
As for `CC(C)CCN(C[C@@H](O)[C@H](Cc1ccccc1)NC(=O)[C@H](CC(N)=O)NC(=O)OCc1ccccc1)S(=O)(=O)c1ccccc1` [Table 5 Entry 14], in data set [1] (setting [3]), the half-inhibitory concentration (IC50) was found to be 2.2 nM.
For the compound `COc1ccc(S(=O)(=O)N(CC(C)C)CC(O)C(Cc2ccccc2)NC(=O)c2ccccc2S(C)(=O)=O)cc1` (stereo not shown) [Table 5A Entry 17], the “IC50 (uM) or % inhibition: % inhibition @ 10 μM” value in data set [1] (Table 20, @ 10 μM) stood at 59% @ 10 μM.
With `CC(C)CCN(C[C@@H](O)[C@H](Cc1ccccc1)NC(=O)c1ccccc1)S(=O)(=O)c1ccccc1` [Entry 8], in data set [1] (IC50 (nM), Table 21), 85 nM corresponded to half-maximal inhibition (IC50).
Consider `CC(C)CN(C[C@@H](O)[C@H](Cc1ccccc1)NC(=O)OCc1cncs1)S(=O)(=O)c1ccc(N)cc1` [Example 61], for which, in data set [1] (Table 21, read-out: IC50), the half-inhibitory concentration (IC50) amounted to 16 nM.
Same read-out and setting: under `COc1ccc(S(=O)(=O)N(CC(C)C)C[C@@H](O)[C@H](Cc2ccccc2)NC(=O)OCc2cncs2)cc1` [Example 56] stands 4 nM; under `Cc1c(O)cccc1C(=O)N[C@@H](Cc1ccccc1)[C@H](O)CN(CC(C)C)S(=O)(=O)c1cccc(N)c1` [Example 65], 4 nM.
Regarding `CC(C)CCN(C[C@@H](O)[C@H](Cc1ccccc1)NC(=O)OCc1ccccc1)S(=O)(=O)CCl` [Table 1a Entry 52], in data set [1] (Table 19B), the “IC50 (uM) or % inhib: % inhib @ 1 uM” value is given as 39% and the “IC50 (uM) or % inhib: % inhib @ 10 uM” value amounted to 81%.
Turning to `COc1ccc(S(=O)(=O)N(CC(C)C)C[C@@H](O)[C@H](Cc2ccccc2)NC(=O)c2ccccc2C)cc1` [Example 29], the “TD50 (nM)” value in data set [2] was 196,000 nM.
With `CC(C)CCN(C[C@@H](O)[C@H](Cc1ccccc1)NC(=O)[C@@H](NC(=O)OCc1ccccc1)C(C)C)S(=O)(=O)c1ccccc1` [Table 5 Entry 1], the IC50 in data set [1] (setting [3]) was 1.4 nM.
Turning to `CC(C)CN(C[C@@H](O)[C@H](Cc1ccccc1)NC(=O)COc1ccccc1)S(=O)(=O)c1ccc2ncsc2c1` [Example 78], the IC50 in data set [1] (Table 21, read-out: IC50) came out at 3 nM.
For the compound `C=CS(=O)(=O)N(CC(C)C)C[C@@H](O)[C@H](Cc1ccccc1)NC(=O)OCc1ccccc1` [Table 1a Entry 55], the IC50 in data set [1] (setting [3]) came out at 100 nM.
`COc1ccc(S(=O)(=O)N(CC(C)C)C[C@@H](O)[C@H](Cc2ccccc2)NC(=O)c2cc(N(C)C)ccc2C)cc1` [Example 55]: the IC50 in data set [1] (Table 21, read-out: IC50) turned out to be 37 nM.
With `CC(C)CCN(C[C@@H](O)[C@H](Cc1ccccc1)NC(=O)[C@H](Cc1cnc[nH]1)NC(=O)c1ccc2ccccc2n1)S(=O)(=O)c1ccccc1` [Entry 12], the midpoint of inhibition in data set [1] (IC50 (nM), Table 21), the IC50, lay at 2 nM.
In the case of `COc1ccc(S(=O)(=O)N(CC(C)C)CC(O)C(Cc2ccccc2)NC(=O)c2ccccc2CS(C)(=O)=O)cc1` (stereo not shown) [Table 5A Entry 20], in data set [1] (Table 20, @ 1 μM), the “IC50 (uM) or % inhibition: % inhibition @ 1 μM” value is given as 85% @ 1 μM.
For the compound `COc1ccc(S(=O)(=O)N(CC(C)C)C[C@@H](O)[C@H](Cc2ccccc2)NC(=O)O[C@H]2CCS(=O)(=O)C2)cc1` [Example 47], the IC50 in data set [1] (Table 21, read-out: IC50) stood at 3 nM.
On the same count and under the same terms, under `Cc1c(O)cccc1C(=O)N[C@@H](Cc1ccccc1)[C@H](O)CN(CC(C)C)S(=O)(=O)c1ccc2c(c1)OCO2` [Example 73] stands 4 nM; under `CC(C)CN(C[C@@H](O)[C@H](Cc1ccccc1)NC(=O)OCc1ccccc1)S(=O)(=O)c1ccc2nc(N)sc2c1` [Example 77], 2 nM.
The same measure, in the same setting: under `CC(C)CN(C[C@@H](O)[C@H](Cc1ccccc1)NC(=O)OCc1cncs1)S(=O)(=O)c1ccc2c(c1)CCO2` [Example 67] stands 5 nM.
Take `CCCN(C[C@@H](O)[C@H](Cc1ccccc1)NC(=O)[C@H](CC(N)=O)NC(=O)OCc1ccccc1)S(=O)(=O)c1ccccc1` [Entry 7]: in data set [1] (Table 18A, read-out: IC50), the IC50 was determined as 3.6 nM.
For the compound `COc1ccc(S(=O)(=O)N(CC(C)C)C[C@@H](O)[C@H](Cc2ccccc2)NC(=O)OCc2ccc(O)nc2)cc1` [Example 39], in data set [1] (Table 21, read-out: IC50), the IC50 turned out to be 16 nM.
The same measure, in the same setting: under `CC(C)CN(C[C@@H](O)[C@H](Cc1ccccc1)NC(=O)O[C@H]1CCS(=O)(=O)C1)S(=O)(=O)c1ccc(O)cc1` [Example 43] stands 4 nM; under `CC(C)CN(C[C@@H](O)[C@H](Cc1ccccc1)NC(=O)OCc1cncs1)S(=O)(=O)c1cccc(N)c1` [Example 64], 7 nM.
Take `CCc1ccccc1C(=O)NC(Cc1ccccc1)C(O)CN(CC(C)C)S(=O)(=O)c1ccc(OC)cc1` (stereo not shown) [Table 5A Entry 13]: the IC50 in data set [1] (setting [4]) stood at 9.8 nM.
On to `COc1ccc(S(=O)(=O)N(CC(C)C)CC(O)C(Cc2ccccc2)NC(=O)c2ccc(S(C)(=O)=O)cc2)cc1` (stereo not shown) [Table 5A Entry 19], for which the half-maximal inhibitory concentration (IC50) in data set [1] (setting [4]) amounted to 92 nM.
Regarding `COc1ccc(S(=O)(=O)N(CC(C)C)C[C@@H](O)[C@H](Cc2ccccc2)NC(=O)c2ccccc2)cc1` [Example 28], in data set [2], the “TD50 (nM)” value was 213,000 nM.
Consider `COc1ccc(S(=O)(=O)N(CC(C)C)C[C@@H](O)[C@H](Cc2ccccc2)NC(=O)O[C@H]2CCOC2)cc1` [Example 44], for which the IC50 in data set [1] (Table 21, read-out: IC50) was 4 nM.
Same read-out and setting: to `COc1ccc(S(=O)(=O)N(CC(C)C)C[C@@H](O)[C@H](Cc2ccccc2)NC(=O)c2cccc(N(C)C)c2C)cc1` [Example 36] belongs 310 nM.
As for `COc1ccc(S(=O)(=O)N(CC(C)C)CC(O)C(Cc2ccccc2)NC(=O)c2cccc(C)c2C)cc1` (stereo not shown) [Table 5A Entry 16], the IC50 in data set [1] (setting [4]) came to 8 nM.
For the compound `Cc1cc(O)ccc1C(=O)N[C@@H](Cc1ccccc1)[C@H](O)CN(CC(C)C)S(=O)(=O)c1ccc2c(c1)OCO2` [Example 72], in data set [1] (Table 21, read-out: IC50), the IC50 turned out to be 5 nM.
As to `CC(C)CCN(C[C@@H](O)[C@H](Cc1ccccc1)NC(=O)C(NC(=O)CN(C)C)C(C)(C)C)S(C)(=O)=O` (stereo partly shown) [Table 3 Entry 2], the “IC50 (uM) or % inhib: % inhib @ 1 uM” value in data set [1] (Table 19B) was found to be 38%. For the same compound, the “IC50 (uM) or % inhib: % inhib @ 1.0 uM” value in data set [1] (Table 19B, @ 1.0 uM (second value of the cell)) was determined as 90%.
Regarding `Cc1c(O)cccc1C(=O)N[C@@H](Cc1ccccc1)[C@H](O)CN(CC(C)C)S(=O)(=O)c1ccc(N)cc1` [Example 63], in data set [1] (Table 21, read-out: IC50), the IC50 is 7 nM.
On to `C=CCOC(=O)N[C@@H](Cc1ccccc1)[C@H](O)CN(CC(C)C)S(=O)(=O)c1ccc(OC)cc1` [Table 5 Entry 33], for which the IC50 in data set [1] (setting [3]) was determined as 4.4 nM.
As to `Cc1ccccc1C(=O)N[C@@H](Cc1ccccc1)[C@H](O)CN(CC(C)C)S(=O)(=O)c1ccc(N)cc1` [Example 62], the IC50 in data set [1] (Table 21, read-out: IC50) was 28 nM.
Same read-out and setting: to `CC(C)CN(C[C@@H](O)[C@H](Cc1ccccc1)NC(=O)OCc1ccc(N)nc1)S(=O)(=O)c1ccc(O)cc1` [Example 40] belongs 3 nM.
Regarding `CC(C)CCN(C[C@@H](O)[C@H](Cc1ccccc1)NC(=O)OCc1ccccc1)S(=O)(=O)C(F)(F)F` [Table 1a Entry 50], in data set [1] (Table 19B), the “IC50 (uM) or % inhib: % inhib @ 1 uM” value was determined as 42% and the “IC50 (uM) or % inhib: % inhib @ 10 uM” value is 89%.
With `CCOc1ccc(S(=O)(=O)N(CC(C)C)C[C@@H](O)[C@H](Cc2ccccc2)NC(=O)OCc2ccccc2)cc1` [Entry 12], the IC50 in data set [1] (Table 18A, read-out: IC50) came to 20 nM.
Take `CSC(C)(C)[C@H](NC(=O)CN(C)C)C(=O)N[C@@H](Cc1ccccc1)[C@H](O)CN(CCC(C)C)S(=O)(=O)c1ccccc1` [Table 14 Entry 3]: in data set [1] (setting [3]), the IC50 amounted to 4.9 nM.
On the same count and under the same terms, under `CC(C)CN(C[C@@H](O)[C@H](Cc1ccccc1)NC(=O)OCc1ccccc1)S(=O)(=O)C=Cc1ccccc1` [Table 1a Entry 53] stands 49 nM.
On to `CC(C)CCN(C[C@@H](O)[C@H](Cc1ccccc1)NC(=O)[C@@H](NC(=O)CN(C)C)C(C)(C)C)S(=O)(=O)c1ccccc1` [Entry 9], for which the IC50 in data set [1] (Table 18A, read-out: IC50) was found to be 3.5 nM.
For `CC(C)CN(C[C@@H](O)[C@H](Cc1ccccc1)NC(=O)OCc1cccnc1)S(=O)(=O)c1ccc(Cl)cc1` [Example 18], the IC50 in data set [1] (Table 21, read-out: IC50) is 4 nM.
`CC(C)CN(C[C@@H](O)[C@H](Cc1ccccc1)NC(=O)OCc1cccnc1)S(=O)(=O)c1ccc2c(c1)OCO2` [Example 69]: the IC50 in data set [1] (Table 21, read-out: IC50) turned out to be 4 nM.
Still for that read-out and setting: to `CC(C)CN(C[C@@H](O)[C@H](Cc1ccccc1)NC(=O)OCc1cccnc1)S(=O)(=O)c1ccc([N+](=O)[O-])cc1` [Example 19] belongs 8 nM; to `COc1ccc(S(=O)(=O)N(CC(C)C)C[C@@H](O)[C@H](Cc2ccccc2)NC(=O)OCc2ccoc2)cc1` [Example 58], 2 nM.
Regarding `CC(C)CCN(CC(O)C(Cc1ccccc1)NC(=O)C(NC(=O)CBr)C(C)(C)C)S(=O)(=O)c1ccccc1` (stereo not shown) [Table 12 Entry 10], in data set [1] (setting [3]), the IC50 is 3.3 nM.
On to `CC(C)CN(C[C@@H](O)[C@H](Cc1ccccc1)NC(=O)OCc1cncs1)S(=O)(=O)c1ccc(O)cc1` [Example 57], for which the IC50 in data set [1] (Table 21, read-out: IC50) amounted to 4 nM.
As to `CC(C)CCN(C[C@@H](O)[C@H](Cc1ccccc1)NC(=O)OCc1ccccc1)S(=O)(=O)c1ccc([N+](=O)[O-])cc1` [Entry 6], the IC50 in data set [1] (Table 18A, read-out: IC50) is 10 nM.
